Measurements published in patent publication US20070172471A1, “Method for identifying an anti- streptococcal agent and its use for treating streptococcal infections” (Hansa Medical AB, priority 2003, published 2007).
Peptide text beside a SMILES is read from it.

Legend:
[1] = system: PMNs in human blood; assay: HBP release in human blood by streptococcal and other PMN-activating components; type: cell-based; conditions: for release of HBP: added to human blood, HBP in supernatant by ELISA, FIG. 1
Procedure: (§1) HBP release. 100 μl human blood were diluted in PBS to a final volume of 1.0 ml and incubated with various PMNs-activating components for 30 min at 37° C. Cells were centrifuged (300×g for 15 min) and the supernatant was analyzed by sandwich ELISA. In order to quantify the total amount of HBP in blood, cells were lysed with 0.02% (v/v) Triton X-100, and pelleted as described above.

[2] = system: mice of the C57BL/6 strain; conditions: for breathing of mice: thirty minutes after i.v. M1 protein 15 μg/animal, alone or plus peptide 400 μg/animal; for lung damage after injection of the protein alone, scanning electron microscopy / lung lesions after injection of the protein alone, light microscopy: i.v., M1 protein 15 μg/animal, 30 min
[3] = system: M1 protein-induced release of HBP from PMNs in human blood; conditions: M1 protein 1 μg/ml, 30 min 37° C., FIG. 2 and FIG. 5B
Procedure: as §1

[4] = target: T1, fibrinogen (Homo sapiens, UniProt P02671+P02675+P02679); assay: Fibrinogen binding on Western blot; conditions: literature statement, demonstrated in the applicant's blot probed with fibrinogen 2 μg/ml
T1 sequence (P02671 20-644 isoform P02671-2 limits assumed): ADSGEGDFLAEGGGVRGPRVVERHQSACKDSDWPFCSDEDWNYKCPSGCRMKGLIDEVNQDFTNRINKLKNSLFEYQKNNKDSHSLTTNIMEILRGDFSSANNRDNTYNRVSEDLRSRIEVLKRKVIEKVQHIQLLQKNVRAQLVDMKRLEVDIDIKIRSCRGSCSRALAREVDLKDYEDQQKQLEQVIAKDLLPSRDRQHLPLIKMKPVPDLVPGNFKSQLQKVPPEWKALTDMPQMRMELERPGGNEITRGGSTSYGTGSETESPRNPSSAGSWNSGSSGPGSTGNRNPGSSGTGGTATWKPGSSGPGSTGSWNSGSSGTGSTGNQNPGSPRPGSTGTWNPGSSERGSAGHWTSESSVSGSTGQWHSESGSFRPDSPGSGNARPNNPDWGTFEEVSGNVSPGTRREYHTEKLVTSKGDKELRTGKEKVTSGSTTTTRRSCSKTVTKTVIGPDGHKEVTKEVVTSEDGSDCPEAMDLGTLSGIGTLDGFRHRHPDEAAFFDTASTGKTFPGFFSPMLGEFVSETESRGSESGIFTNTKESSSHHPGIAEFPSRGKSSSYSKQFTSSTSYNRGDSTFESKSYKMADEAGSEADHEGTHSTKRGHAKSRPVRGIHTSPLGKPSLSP
T1 sequence (P02675 31-491): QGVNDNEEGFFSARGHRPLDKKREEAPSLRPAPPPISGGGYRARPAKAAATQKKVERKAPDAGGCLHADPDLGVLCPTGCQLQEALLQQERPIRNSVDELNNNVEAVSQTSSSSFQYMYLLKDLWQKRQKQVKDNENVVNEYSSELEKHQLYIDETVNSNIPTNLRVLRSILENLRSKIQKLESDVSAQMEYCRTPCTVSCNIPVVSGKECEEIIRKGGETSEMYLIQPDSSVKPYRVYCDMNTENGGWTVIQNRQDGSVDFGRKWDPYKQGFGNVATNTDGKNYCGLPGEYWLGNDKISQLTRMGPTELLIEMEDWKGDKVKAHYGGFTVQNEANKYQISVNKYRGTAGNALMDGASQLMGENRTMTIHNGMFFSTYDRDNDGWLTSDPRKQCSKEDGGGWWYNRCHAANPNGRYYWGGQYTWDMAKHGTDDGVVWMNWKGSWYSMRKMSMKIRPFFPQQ
T1 sequence (P02679 27-453): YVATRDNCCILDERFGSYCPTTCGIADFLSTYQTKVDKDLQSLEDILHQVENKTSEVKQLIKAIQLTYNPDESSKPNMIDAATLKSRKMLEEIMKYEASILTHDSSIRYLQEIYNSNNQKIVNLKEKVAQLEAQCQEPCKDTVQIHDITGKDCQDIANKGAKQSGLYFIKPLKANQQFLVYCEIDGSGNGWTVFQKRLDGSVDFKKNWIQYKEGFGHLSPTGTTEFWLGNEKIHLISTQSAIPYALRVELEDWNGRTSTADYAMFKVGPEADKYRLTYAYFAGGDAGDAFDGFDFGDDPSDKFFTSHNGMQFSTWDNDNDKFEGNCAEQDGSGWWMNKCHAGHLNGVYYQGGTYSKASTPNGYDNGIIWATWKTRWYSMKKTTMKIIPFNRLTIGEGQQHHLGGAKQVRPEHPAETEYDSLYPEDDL
Procedure: SDS-polyacrylamide gel electrophoresis, Western blotting, and immunoprinting. Proteins were separated by 12.5% (w/v) polyacrylamide gel electrophoresis in the presence of 1% (w/v) SDS (Laemmli, 1970, Nature, 227, 680-685). Molecular weight markers were from Sigma Chemical Co. (St. Louis, Mo.). The resolved proteins were visualized by the silver stain technique. Proteins were also transferred onto nitrocellulose membranes for 30 min at 100 mA (Khyse-Andersen, 1984, J. Biochem. Biophys. Methods, 10, 203-209). The membranes were blocked with PBS containing 5% (w/v) dry milk powder and 0.05% (w/v) Tween-20, pH 7.4. Immunoprinting of the transferred proteins was done according to Towbin et al. (Towbin et al., 1979, Proc. Natl. Acad. Sci. USA, 76, 4350-4354). Polyclonal antibodies against M1 protein, diluted 1:50000 in the blocking buffer, was used. Bound antibodies were detected using a peroxidase-conjugated secondary antibodies against rabbit IgG (dilution 1:3000) followed by a chemiluminescence detection method. Alternatively, membranes were blocked, incubated with fibrinogen (2 μg/ml) followed by immunodetection with antibodies to fibrinogen (1:1000) and peroxidase-conjugated secondary antibodies against rabbit immunoglobulin (1:3000 diluted).

[5] = target: T2, Fibrinogen (human, UniProt P02671 20-630; P02675 31-491; P02679 27-453); assay: ligand blot: SDS-PAGE, transfer to nitrocellulose, probed with fibrinogen, immunodetection of bound fibrinogen
T2 construct: also called human fibrinogen; purified fibrinogen

Molecule: hyaluronic acid
- release of HBP ([1]; 30 min 37° C.): did not induce HBP release

Molecule: N=C(N)NCCC[C@H](NC(=O)[C@H](Cc1c[nH]cn1)NC(=O)CN)C(=O)N1CCC[C@H]1C(=O)O [Gly-His-Arg-Pro] (H-GHRP-OH)
- breathing of mice [2]: clearly affected

Molecule: pertussis toxin
- effect on M1 protein-induced release of HBP [3]: none of the two components inhibited the release of HBP

Molecule: CN(C)CCCn1cc(C2=C(c3c[nH]c4ccccc34)C(=O)NC2=O)c2ccccc21 [GF109203]
- effect on M1 protein-induced release of HBP [3]: did not interfere with the secretion of HBP

Molecule: COc1cccc(-c2cc(=O)c3ccccc3o2)c1N [PD98059]
- effect on M1 protein-induced release of HBP [3]: did not interfere with the secretion of HBP

Molecule: COc1cc2ncnc(Nc3cccc(Cl)c3)c2cc1OC [AG1478]
- effect on M1 protein-induced release of HBP [3]: did not interfere with the secretion of HBP

Molecule: M1 protein: recombinant M1 protein of Streptococcus pyogenes expressed in E. coli (SEQ ID NO: 1)
- ratio of lung area containing protein aggregates versus total lung area ([2]; M1 protein alone i.v., six lung sections per animal, electron microscopy): 90±2%
- lung damage after injection of the protein alone, scanning electron microscopy [2]: severe leakage of erythrocytes
- lung lesions after injection of the protein alone, light microscopy [2]: severe hemorrhage and tissue destruction
- breathing of mice [2]: clearly affected
- HBP stored in PMNs mobilized ([1]; M1 protein final concentration 1 μg/ml, human whole blood, 30 min 37° C., FIG. 1A): about 63%
- M1 protein concentration of maximal release of HBP from PMNs ([1]; blood diluted 1/10, FIG. 3B): 1 µg/mL
- binding of fibrinogen [4]: binds fibrinogen with high affinity

Molecule: lipoteichoic acid
- release of HBP ([1]; 30 min 37° C.): evoked secretion of HBP

Molecule: COc1ccc2c(c1)CC[C@@H]1[C@@H]2CC[C@]2(C)[C@@H](NCCCCCCN3C(=O)C=CC3=O)CC[C@@H]12 [U-73122]
- effect on M1 protein-induced release of HBP [3]: did not interfere with the secretion of HBP

Molecule: O=C(O)CN(CCOCCOCCN(CC(=O)O)CC(=O)O)CC(=O)O [EGTA]
- effect on M1 protein-induced release of HBP [3]: blocked HBP release

Molecule: O=c1c(-c2ccc(O)cc2)coc2cc(O)cc(O)c12 [genistein]
- effect on M1 protein-induced release of HBP [3]: blocked the release of HBP almost completely

Molecule: CSCC[C@H](NC=O)C(=O)N[C@@H](CC(C)C)C(=O)N[C@@H](Cc1ccccc1)C(=O)O [fMLP, formyl-methionyl-leucyl-phenylalanine]
- release of HBP ([1]; 30 min 37° C.): evoked secretion of HBP

Molecule: O=S(=O)(NCCNC/C=C/c1ccc(Br)cc1)c1cccc2cnccc12 [H-89]
- effect on M1 protein-induced release of HBP [3]: did not interfere with the secretion of HBP

Molecule: SpeB: streptococcal cysteine proteinase
- release of HBP ([1]; 30 min 37° C.): did not induce HBP release

B1: Protein H (IgG-binding surface protein of S. pyogenes AP1), recombinant from E. coli (other)
chain: EGAKIDWQEEYKKLDEDNAKLVEVVETTSLENEKLKSENEENKKNLDKLSKENQGKLEKLELDYLKKLDHEHKEHQKEQQEQEERQKNQEQLERKYQREVEKRYQEQLQKQQQLETEKQISEASRKSLSRDLEASRAAKKDLEAEHQKLEAEHQKLKEDKQISDASRQGLSRDLEASRAAKKELEANHQKLEAEHQKLKEDKQISDASRQGLSRDLEASRAAKKELEANHQKLEAEAKALKEQLAKQAEELAKLRAGKASDSQTPDTKPGNKAVPGKGQAPQAGTKPNQNKAPMKETKRQLPST
notes: also called purified protein H
- binding result [5]: no binding

B2: protein H: IgG-binding surface protein of AP1 bacteria, closely related to M1 protein, does not bind fibrinogen (protein)
chain: EGAKIDWQEEYKKLDEDNAKLVEVVETTSLENEKLKSENEENKKNLDKLSKENQGKLEKLELDYLKKLDHEHKEHQKEQQEQEERQKNQEQLERKYQREVEKRYQEQLQKQQQLETEKQISEASRKSLSRDLEASRAAKKDLEAEHQKLEAEHQKLKEDKQISDASRQGLSRDLEASRAAKKELEANHQKLEAEHQKLKEDKQISDASRQGLSRDLEASRAAKKELEANHQKLEAEAKALKEQLAKQAEELAKLRAGKASDSQTPDTKPGNKAVPGKGQAPQAGTKPNQNKAPMKETKRQLPST
- lung damage after injection of the protein alone, scanning electron microscopy [2]: did neither cause serious bleeding
- lung lesions after injection of the protein alone, light microscopy [2]: no hemorrhage
- release of HBP ([1]; 30 min 37° C.): Only minute amounts
- binding of fibrinogen [4]: shows no interaction with fibrinogen
